Measured values as given in patent publication US11382328B2, “Rapid drug discovery methods for pathogen inactivation” (priority 2019, dated 2022).

Tested on: E. coli strain W3110
Assay: Synergy assays: Biolog chemical sensitivity panels with Group IB metal, coefficient of drug interaction (CDI) from relative growth
Assay type: cell-based
Conditions: for CDI (coefficient of drug interaction), gold + biocide: Gold (μM); for CDI (coefficient of drug interaction), copper mixed with biocide: Copper (mM) section
[1] = Copper (mM), 1st of 3 copper concentrations (head line not shown), biocide concentration 2 of 4, E. coli
[2] = Copper (mM), 1st of 3 copper concentrations (head line not shown), biocide concentration 3 of 4, E. coli
[3] = Copper (mM), 1st of 3 copper concentrations (head line not shown), biocide concentration 4 of 4, E. coli
[4] = Copper (mM), 2nd of 3 copper concentrations (head line not shown), biocide concentration 1 of 4, E. coli
[5] = Copper (mM), 2nd of 3 copper concentrations (head line not shown), biocide concentration 2 of 4, E. coli
[6] = Copper (mM), 2nd of 3 copper concentrations (head line not shown), biocide concentration 3 of 4, E. coli
[7] = Copper (mM), 2nd of 3 copper concentrations (head line not shown), biocide concentration 4 of 4, E. coli
[8] = Copper (mM), 3rd of 3 copper concentrations (head line not shown), biocide concentration 1 of 4, E. coli
[9] = Copper (mM), 3rd of 3 copper concentrations (head line not shown), biocide concentration 3 of 4, E. coli
[10] = Copper (mM), 3rd of 3 copper concentrations (head line not shown), biocide concentration 4 of 4, E. coli
[11] = Silver 0.5 μM, biocide concentration 1 of 4
[12] = Silver 0.5 μM, biocide concentration 2 of 4
[13] = Silver 0.5 μM, biocide concentration 3 of 4
[14] = Silver 0.5 μM, biocide concentration 4 of 4
[15] = Silver 1.0 μM, biocide concentration 1 of 4
[16] = Silver 1.0 μM, biocide concentration 2 of 4
[17] = Silver 1.0 μM, biocide concentration 3 of 4
[18] = Silver 1.0 μM, biocide concentration 4 of 4
[19] = Silver 5.0 μM, biocide concentration 1 of 4
[20] = Silver 5.0 μM, biocide concentration 2 of 4
[21] = Silver 5.0 μM, biocide concentration 3 of 4
[22] = Silver 5.0 μM, biocide concentration 4 of 4
[23] = Gold section of Table 5, first of three gold concentrations (μM, value not given), biocide concentration 4 of 4
[24] = Gold section of Table 5, second of three gold concentrations (μM, value not given), biocide concentration 1 of 4
[25] = Gold section of Table 5, second of three gold concentrations (μM, value not given), biocide concentration 3 of 4
[26] = Gold section of Table 5, second of three gold concentrations (μM, value not given), biocide concentration 4 of 4
[27] = Gold section of Table 5, third of three gold concentrations (μM, value not given), biocide concentration 1 of 4
[28] = Gold section of Table 5, third of three gold concentrations (μM, value not given), biocide concentration 2 of 4
[29] = 1st of 3 copper concentrations (value not shown), 4th of four biocide concentrations
[30] = 2nd of 3 copper concentrations (value not shown), 1st of four biocide concentrations
[31] = 2nd of 3 copper concentrations (value not shown), 4th of four biocide concentrations
[32] = 3rd of 3 copper concentrations (value not shown), 4th of four biocide concentrations
[33] = Gold section of Table 5, first of three gold concentrations (μM, value not given), biocide concentration 2 of 4
[34] = Gold section of Table 5, second of three gold concentrations (μM, value not given), biocide concentration 2 of 4
[35] = Silver 0.5 μM, 2nd of four biocide concentrations, E. coli
[36] = Silver 1.0 μM, 1st of four biocide concentrations, E. coli
[37] = Silver 1.0 μM, 2nd of four biocide concentrations, E. coli
[38] = Silver 5.0 μM, 1st of four biocide concentrations, E. coli
[39] = Silver 5.0 μM, 2nd of four biocide concentrations, E. coli

CSCCC(N)C(=O)NO (racemic) [D,L-methionine hydroxamate]
CDI (coefficient of drug interaction) [1]: 1.19 | CDI (coefficient of drug interaction) [2]: 1.02 | CDI (coefficient of drug interaction) [3]: 0.91 | CDI (coefficient of drug interaction) [4]: 0.84 | CDI (coefficient of drug interaction) [5]: 0.95 | CDI (coefficient of drug interaction) [6]: 2.26 | CDI (coefficient of drug interaction) [7]: 3.51 | CDI (coefficient of drug interaction) [8]: 0.98 | CDI (coefficient of drug interaction) [9]: 1.51 | CDI (coefficient of drug interaction) [10]: 1.54 | CDI (coefficient of drug interaction), gold + biocide (first of 3 gold concentrations, biocide concentration 1 of 4): 1.08 | CDI (coefficient of drug interaction), gold + biocide (first of 3 gold concentrations, biocide concentration 2 of 4): 1.10 | CDI (coefficient of drug interaction), gold + biocide (first of 3 gold concentrations, biocide concentration 3 of 4): 1.06 | CDI (coefficient of drug interaction), gold + biocide (first of 3 gold concentrations, biocide concentration 4 of 4): Tox | CDI (coefficient of drug interaction), gold + biocide (second of 3 gold concentrations, biocide concentration 1 of 4): 1.03 | CDI (coefficient of drug interaction), gold + biocide (second of 3 gold concentrations, biocide concentration 2 of 4): 1.04 | CDI (coefficient of drug interaction), gold + biocide (second of 3 gold concentrations, biocide concentration 3 of 4): 1.08 | CDI (coefficient of drug interaction), gold + biocide (second of 3 gold concentrations, biocide concentration 4 of 4): Tox | CDI (coefficient of drug interaction), gold + biocide (third of 3 gold concentrations, biocide concentration 1 of 4): 0.92 | CDI (coefficient of drug interaction), gold + biocide (third of 3 gold concentrations, biocide concentration 2 of 4): 0.96 | CDI (coefficient of drug interaction), gold + biocide (third of 3 gold concentrations, biocide concentration 3 of 4): 0.93 | CDI (coefficient of drug interaction), gold + biocide (third of 3 gold concentrations, biocide concentration 4 of 4): Tox | CDI [11]: 0.88 | CDI [12]: 1.04 | CDI [13]: Tox | CDI [14]: Tox | CDI [15]: 1.04 | CDI [16]: 0.99 | CDI [17]: Tox | CDI [18]: Tox | CDI [19]: 0.71 | CDI [20]: 0.42 | CDI [21]: Tox | CDI [22]: Tox

capreomycin
CDI (coefficient of drug interaction) (Copper (mM), 1st of 3 copper concentrations (head line not shown), biocide concentration 1 of 4, E. coli): 1.10 | CDI (coefficient of drug interaction) [1]: 0.91 | CDI (coefficient of drug interaction) [2]: 0.83 | CDI (coefficient of drug interaction) [3]: 0.87 | CDI (coefficient of drug interaction) [4]: 0.87 | CDI (coefficient of drug interaction) [5]: 0.86 | CDI (coefficient of drug interaction) [6]: 0.90 | CDI (coefficient of drug interaction) [7]: Tox | CDI (coefficient of drug interaction) [8]: 0.86 | CDI (coefficient of drug interaction) (Copper (mM), 3rd of 3 copper concentrations (head line not shown), biocide concentration 2 of 4, E. coli): 0.57 | CDI (coefficient of drug interaction) [9]: 0.49 | CDI (coefficient of drug interaction) [10]: 0.60 | CDI (coefficient of drug interaction) [23]: 1.03 | CDI (coefficient of drug interaction) [24]: 1.03 | CDI (coefficient of drug interaction) [25]: 0.97 | CDI (coefficient of drug interaction) [26]: 1.06 | CDI (coefficient of drug interaction) [27]: 1.00 | CDI (coefficient of drug interaction) [28]: 0.98 | CDI (coefficient of drug interaction) (Gold section of Table 5, third of three gold concentrations (μM, value not given), biocide concentration 4 of 4): 1.14 | CDI [11]: 0.95 | CDI [12]: 0.92 | CDI [13]: 0.96 | CDI [14]: Tox | CDI [15]: 0.69 | CDI [16]: 0.37 | CDI [17]: 0.35 | CDI [18]: Tox | CDI [19]: 0.41 | CDI [20]: 0.11 | CDI [21]: 0.02 | CDI [22]: Tox

CCCCCCCCCCCC[N+](C)(C)CCCS(=O)(=O)O [lauryl sulfobetaine]
CDI (coefficient of drug interaction), copper mixed with biocide (1st of 3 copper concentrations (value not shown), 1st of four biocide concentrations): 0.96 | CDI (coefficient of drug interaction), copper mixed with biocide (1st of 3 copper concentrations (value not shown), 2nd of four biocide concentrations): 1.18 | CDI (coefficient of drug interaction), copper mixed with biocide (1st of 3 copper concentrations (value not shown), 3rd of four biocide concentrations): 0.80 | CDI (coefficient of drug interaction), copper mixed with biocide [29]: 0.21 | CDI (coefficient of drug interaction), copper mixed with biocide [30]: 0.60 | CDI (coefficient of drug interaction), copper mixed with biocide (2nd of 3 copper concentrations (value not shown), 2nd of four biocide concentrations): 1.39 | CDI (coefficient of drug interaction), copper mixed with biocide (2nd of 3 copper concentrations (value not shown), 3rd of four biocide concentrations): 0.72 | CDI (coefficient of drug interaction), copper mixed with biocide [31]: 0.48 | CDI (coefficient of drug interaction), copper mixed with biocide (3rd of 3 copper concentrations (value not shown), 1st of four biocide concentrations): 0.48 | CDI (coefficient of drug interaction), copper mixed with biocide (3rd of 3 copper concentrations (value not shown), 2nd of four biocide concentrations): 0.80 | CDI (coefficient of drug interaction), copper mixed with biocide (3rd of 3 copper concentrations (value not shown), 3rd of four biocide concentrations): 0.34 | CDI (coefficient of drug interaction), copper mixed with biocide [32]: 0.07 | CDI (coefficient of drug interaction) (Gold section of Table 5, first of three gold concentrations (μM, value not given), biocide concentration 1 of 4): 0.86 | CDI (coefficient of drug interaction) [33]: 1.26 | CDI (coefficient of drug interaction) (Gold section of Table 5, first of three gold concentrations (μM, value not given), biocide concentration 3 of 4): 0.86 | CDI (coefficient of drug interaction) [23]: 0.99 | CDI (coefficient of drug interaction) [24]: 0.96 | CDI (coefficient of drug interaction) [34]: 0.87 | CDI (coefficient of drug interaction) [25]: 1.00 | CDI (coefficient of drug interaction) [26]: 1.09 | CDI (coefficient of drug interaction) [27]: 1.13 | CDI (coefficient of drug interaction) [28]: 1.04 | CDI (coefficient of drug interaction) (Gold section of Table 5, third of three gold concentrations (μM, value not given), biocide concentration 3 of 4): 0.96 | CDI (coefficient of drug interaction), silver + biocide (Silver 0.5 μM, 1st of four biocide concentrations, E. coli): 0.83 | CDI (coefficient of drug interaction), silver + biocide [35]: 0.56 | CDI (coefficient of drug interaction), silver + biocide (Silver 0.5 μM, 3rd of four biocide concentrations, E. coli): Tox | CDI (coefficient of drug interaction), silver + biocide (Silver 0.5 μM, 4th of four biocide concentrations, E. coli): Tox | CDI (coefficient of drug interaction), silver + biocide [36]: 0.91 | CDI (coefficient of drug interaction), silver + biocide [37]: 0.79 | CDI (coefficient of drug interaction), silver + biocide (Silver 1.0 μM, 3rd of four biocide concentrations, E. coli): Tox | CDI (coefficient of drug interaction), silver + biocide (Silver 1.0 μM, 4th of four biocide concentrations, E. coli): Tox | CDI (coefficient of drug interaction), silver + biocide [38]: 1.42 | CDI (coefficient of drug interaction), silver + biocide [39]: 1.41 | CDI (coefficient of drug interaction), silver + biocide (Silver 5.0 μM, 3rd of four biocide concentrations, E. coli): Tox | CDI (coefficient of drug interaction), silver + biocide (Silver 5.0 μM, 4th of four biocide concentrations, E. coli): Tox

CN(C)S(=O)(=O)N(SC(F)(Cl)Cl)c1ccccc1 [dichlofluanid]
CDI (coefficient of drug interaction), copper mixed with biocide [29]: Tox | CDI (coefficient of drug interaction), copper mixed with biocide [30]: Tox | CDI (coefficient of drug interaction), copper mixed with biocide [31]: Tox | CDI (coefficient of drug interaction), copper mixed with biocide [32]: Tox | CDI (coefficient of drug interaction) [33]: Tox | CDI (coefficient of drug interaction) [34]: Tox | CDI (coefficient of drug interaction) [28]: Tox | CDI (coefficient of drug interaction), silver + biocide [35]: Tox | CDI (coefficient of drug interaction), silver + biocide [36]: Tox | CDI (coefficient of drug interaction), silver + biocide [37]: Tox | CDI (coefficient of drug interaction), silver + biocide [38]: Tox | CDI (coefficient of drug interaction), silver + biocide [39]: Tox
